ChEMBL document CHEMBL1914379, “Challenges of drug discovery in novel target space. The discovery and evaluation of PF-3893787: a novel histamine H4 receptor antagonist” (Bioorg Med Chem Lett, 2011)
Active and inactive are the calls of the source. No cut-off for these calls is given here.

Assays:
[1] = Metabolic stability in rat liver microsomes; assay type: ADME, Microsome; details: read-out: Stability
[2] = Half life in dog at 3 mg/kg, iv; assay type: ADME, organism-based, Canis lupus familiaris; parameters: dose 3 mg/kg, route intravenous; details: in vivo
Rattus norvegicus [3] = experiment: Toxicity in po dosed rat assessed as lymphoid depletion from spleen for 4 days; assay type: organism-based; details: in vivo, 96 h
[4] = Blood clearance in rat at 1 mg/kg, iv and 1 mg/kg, po; assay type: ADME, organism-based
[5] = Oral bioavailability in rat at 1 mg/kg; assay type: ADME, organism-based; details: in vivo
Canis familiaris = experiment: Toxicity in dog assessed as adverse events dosed orally for 7 days; assay type: organism-based, Canis lupus familiaris; details: in vivo, po, 168 h
Histamine H4 receptor [6] = target: T1, Histamine H4 receptor (Homo sapiens, UniProt Q9H3N8); experiment: Displacement of [3H]-histamine from full length human H4R expressed in HEK293 cells; assay type: cell-based
[7] = Metabolic stability in human liver microsomes; assay type: ADME, Microsome; details: read-out: Stability
[8] = Lipophilicity, log D of the compound; assay type: physicochemical; details: octanol/water
Rattus norvegicus [9] = experiment: Toxicity in po dosed rat assessed as decrease in erythropoiesis for 4 days; assay type: organism-based, Erythrocyte; details: in vivo, 96 h
Histamine H4 receptor [10] = target: T1, Histamine H4 receptor; experiment: Antagonist activity at full length human H4R expressed in HEK293 cells assessed as reversal of forskolin-induced cAMP production by CRE-beta-lactamase reporter gene assay; assay type: functional, cell-based
Rattus norvegicus [11] = experiment: Toxicity in rat assessed as vacuolation at high dose, po for 7 days; assay type: organism-based; details: in vivo, 168 h
Rattus norvegicus [12] = experiment: Toxicity in po dosed rat assessed as lymphoid depletion from thymus for 4 days; assay type: organism-based; details: in vivo, 96 h
Rattus norvegicus [13] = experiment: Toxicity in po dosed rat assessed as decrease in reticulocyte counts for 4 days; assay type: organism-based; details: in vivo, 96 h
[14] = Blood clearance in dog at 3 mg/kg, iv; assay type: ADME, organism-based, Canis lupus familiaris; parameters: dose 3 mg/kg, route intravenous
[15] = Volume of distribution in dog blood at 3 mg/kg, iv; assay type: ADME, organism-based, Canis lupus familiaris; parameters: dose 3 mg/kg, route intravenous
Rattus norvegicus [16] = experiment: Toxicity in po dosed rat assessed as lymphoid depletion from gut for 4 days; assay type: organism-based; details: in vivo, 96 h
[17] = Half life in rat at 1 mg/kg, iv and 1 mg/kg, po; assay type: ADME, organism-based; details: in vivo
[18] = Volume of distribution in rat blood at 1 mg/kg, iv and 1 mg/kg, po; assay type: ADME, organism-based
HEK-293T [19] = experiment: Agonist activity at dog H4R expressed in HEK293T cells assessed as reversal of forskolin-induced cAMP production by CRE-beta-lactamase reporter gene assay; assay type: functional, cell-based; details: Canis lupus familiaris
[20] = Displacement of [3H]-histamine from dog H4R expressed in HEK293T cells; assay type: cell-based, Canis lupus familiaris; details: hek-293t
HEK-293T [21] = experiment: Agonist activity at macaque H4R expressed in HEK293T cells assessed as reversal of forskolin-induced cAMP production by CRE-beta-lactamase reporter gene assay; assay type: functional, cell-based; details: Macaca mulatta
[22] = target: T2, Histamine H4 receptor (Cavia porcellus) (UniProt Q91ZY3); experiment: Agonist activity at guinea pig H4R expressed in HEK293T cells assessed as reversal of forskolin-induced cAMP production by CRE-beta-lactamase reporter gene assay; assay type: functional, cell-based; details: HEK-293T
T2 sequence (whole entry): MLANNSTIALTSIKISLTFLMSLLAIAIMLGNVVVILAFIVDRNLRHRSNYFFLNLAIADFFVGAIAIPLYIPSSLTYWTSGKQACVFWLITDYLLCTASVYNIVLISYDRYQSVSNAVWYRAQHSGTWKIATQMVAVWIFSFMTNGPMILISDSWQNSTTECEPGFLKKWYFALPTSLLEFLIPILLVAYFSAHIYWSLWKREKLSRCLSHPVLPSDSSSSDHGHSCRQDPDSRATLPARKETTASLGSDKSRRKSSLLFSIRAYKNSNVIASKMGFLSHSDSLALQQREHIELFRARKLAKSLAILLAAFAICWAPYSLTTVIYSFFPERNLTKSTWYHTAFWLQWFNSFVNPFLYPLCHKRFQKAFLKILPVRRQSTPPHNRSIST

[23] = Displacement of [3H]-histamine from macaque H4R expressed in HEK293T cells; assay type: cell-based, Macaca mulatta; details: hek-293t
[24] = Clearance in rat at 1 mg/kg, iv and 1 mg/kg, po; assay type: ADME, organism-based; details: in vivo
Rattus norvegicus [25] = experiment: Induction of pro-inflammatory response in rat dosed orally for 4 days; assay type: functional, organism-based
[26] = Volume of distribution in rat at 1 mg/kg, iv and 1 mg/kg, po; assay type: ADME, organism-based; details: in vivo
Histamine H4 receptor [27] = target: T1, Histamine H4 receptor; experiment: Antagonist activity at full length human H4R expressed in HEK293 cells assessed as inhibition of forskolin-induced cAMP responsive element-beta-lactamase activity at 15 uM; assay type: functional, cell-based

T1 sequence (Q9H3N8 whole entry): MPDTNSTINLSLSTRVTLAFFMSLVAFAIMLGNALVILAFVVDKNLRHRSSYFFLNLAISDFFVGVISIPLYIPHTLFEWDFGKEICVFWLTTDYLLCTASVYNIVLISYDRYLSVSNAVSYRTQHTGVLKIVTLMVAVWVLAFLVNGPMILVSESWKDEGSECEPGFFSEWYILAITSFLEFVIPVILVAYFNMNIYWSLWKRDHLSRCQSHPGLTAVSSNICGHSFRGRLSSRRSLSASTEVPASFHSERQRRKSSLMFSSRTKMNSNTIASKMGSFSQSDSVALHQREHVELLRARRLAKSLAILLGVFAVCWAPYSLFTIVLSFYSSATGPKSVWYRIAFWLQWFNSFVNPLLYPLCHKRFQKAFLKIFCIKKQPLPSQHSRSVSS

Compound	microsomal CLint [1] [µL/min/mg]	Activity (Rattus norvegicus [3])	bioavailability [5] [%]	Activity (Canis familiaris)	Ki (Histamine H4 receptor [6]) [nM]	microsomal CLint [7] [µL/min/mg]	logD [8]	Activity (Rattus norvegicus [9])	Ki (Histamine H4 receptor [10]) [nM]	Activity (Rattus norvegicus [12])	Activity (Rattus norvegicus [13])	Activity (Rattus norvegicus [16])	half-life [17] [min]	clearance [24] [mL/min/kg]	Activity (Rattus norvegicus [25])	Vd [26] [L/kg]	also measured
CNC1CN(c2cc(NCC(C)(C)C)nc(N)n2)C1	< 8.5	Non-toxic	57	Non-toxic	1.7	< 7	0.7	Non-toxic	0.034	Non-toxic	Non-toxic	Non-toxic	414	–	–	–	half-life [2]: 1140 min; clearance [4]: 77 mL/min/kg; Activity (Rattus norvegicus [11]): Toxic; clearance [14]: 30 mL/min/kg; Vd [15]: 48 L/kg; Vd [18]: 49 L/kg
CN1CCN(C(=O)c2cc3cc(Cl)ccc3[nH]2)CC1 [JNJ-7777120]	61	–	–	–	–	28	2.6	–	–	–	–	–	–	–	–	–	Activity (HEK-293T [19]): Active; pKi [20]: 6.89; Activity (HEK-293T [21]): Active; Activity [22]: Active; pKi [23]: 7.17
CNC1CN(c2cc(NCCC(C)(C)C)nc(N)n2)C1	33	Non-toxic	–	Non-toxic	–	–	–	Non-toxic	1.5	Non-toxic	Non-toxic	Non-toxic	–	–	–	–	–
CN1C[C@@H]2CN(C(=O)c3nc4cc(F)c(F)cc4[nH]3)C[C@@H]2C1	10	Dose-dependent effect	50	–	128	< 7	–	Toxic	53	Dose-dependent effect	Toxic	Dose-dependent effect	48	59	Active	4.1	–
CN1C[C@@H]2CN(C(=N)c3nc4cc(F)c(F)cc4[nH]3)C[C@@H]2C1	10	Dose-dependent effect	20	–	10	< 7	–	Toxic	10	Dose-dependent effect	Toxic	Dose-dependent effect	720	31	Active	31	–
CC(C)(C)CCNc1cc(NC2CCN(Cc3ccc(CO)o3)C2)ncn1 (racemic)	–	–	–	–	–	–	–	–	–	–	–	–	–	–	–	–	inhibition (Histamine H4 receptor [27]): 73%
